Data taken from patent US8362000B2, “Azetidinyl diamides as monoacylglycerol lipase inhibitors” (Janssen Pharmaceutica NV, priority 2009, dated 2013).
Numbering of substitutions follows the chain as printed. Where two headings read alike, the source gives them in different places.

What was measured:
[1] = test system: CFA-induced paw radiant heat hypersensitivity; experiment: CFA-induced paw radiant heat hypersensitivity; assay type: in vivo, rat; conditions: Rattus norvegicus, po, HPβCD; for inhibition in vivo at 30 mg/kg: 30 mg/kg p.o., last time point 180 or 300 min; for inhibition in vivo at 10 mg/kg: 5 h, 10 mg/kg p.o., last time point 300 min
Description: Each rat was placed in a test chamber on a warm glass surface and allowed to acclimate for approximately 10 min. A radiant thermal stimulus (beam of light) was then focused through the glass onto the plantar surface of each hind paw in turn. The thermal stimulus was automatically shut off by a photoelectric relay when the paw was moved or when the cut-off time was reached (20 sec for radiant heat at ˜5 amps). An initial (baseline) response latency to the thermal stimulus was recorded for each animal prior to the injection of complete Freund's adjuvant (CFA). […] Immediately following the post-CFA latency assessment, the indicated test compound or vehicle was administered orally.
The percent reversal (% R) of hypersensitivity was calculated in one of two different ways: 1) using group mean values or 2) using individual animal values. More specifically:
Method 2. For some compounds, the % R of hypersensitivity was calculated separately for each animal according to the following formula: % reversal=[(individual treatment response−individual CFA response)/(individual baseline response−individual CFA response)]×100. Results are given as a mean of the maximum % reversal values calculated for each individual animal.

[2] = biological target: T1, MGL (Rattus norvegicus, UniProt Q8R431); experiment: 2-AG accumulation assay in rat brain homogenate; assay type: biochemical; conditions: rat brain homogenate; compound 1 μM; 2-AG accumulation as percent of vehicle; read-out: Rat Brain 2AG % VehCntrl (%) @ 1 μM
T1 construct: one g rat brain was homogenized using a Polytron homogenizer; from tissue; host or cells: rat brain homogenate
T1 sequence (Q8R431 1-303): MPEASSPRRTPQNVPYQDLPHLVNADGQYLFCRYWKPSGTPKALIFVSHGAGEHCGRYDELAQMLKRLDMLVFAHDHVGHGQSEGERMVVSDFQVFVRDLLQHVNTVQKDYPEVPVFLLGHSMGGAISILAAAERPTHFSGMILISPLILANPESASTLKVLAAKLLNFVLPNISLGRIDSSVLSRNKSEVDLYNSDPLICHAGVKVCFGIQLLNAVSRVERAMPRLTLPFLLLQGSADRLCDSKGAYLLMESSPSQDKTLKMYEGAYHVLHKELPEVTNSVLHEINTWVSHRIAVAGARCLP

[3] = biological target: T2, mutant MGL (Homo sapiens, UniProt Q99685, L169S/L176S); experiment: MGL ThermoFluor assay - mutant; assay type: binding
T2 sequence (Q99685 1-303 L169S/L176S): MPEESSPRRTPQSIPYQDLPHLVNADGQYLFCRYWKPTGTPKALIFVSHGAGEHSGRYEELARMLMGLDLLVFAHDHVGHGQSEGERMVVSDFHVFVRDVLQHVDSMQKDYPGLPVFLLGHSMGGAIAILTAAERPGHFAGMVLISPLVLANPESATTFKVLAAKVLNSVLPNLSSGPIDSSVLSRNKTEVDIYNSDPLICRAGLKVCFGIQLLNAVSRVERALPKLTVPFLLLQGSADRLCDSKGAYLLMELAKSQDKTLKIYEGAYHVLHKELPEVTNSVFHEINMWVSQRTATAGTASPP

[4] = biological target: T3, purified wild type MGL (wt-MGLL 6H-11-313) (Homo sapiens, UniProt Q99685)
T3 sequence (Q99685 1-303): T2 sequence (Q99685 1-303 L169S/L176S) with S169L, S176L

[5] = group mean values, read-out: CFA thermal hypersensitivity Method 1: peak % reversal
[6] = individual animal values, read-out: CFA thermal hypersensitivity Method 2: peak % reversal
[7] = ThermoFluor, compound concentration measured by qNMR, read-out: MGL mutant ThermoFluor qKd (μM) (using qNMR conc.)
[8] = ThermoFluor concentration-response, read-out: MGL mutant ThermoFluor Kd

| 2-AG accumulation, % of vehicle control at 1 µM [2] [%] | IC50 [4] [nM] | SMILES | inhibition in vivo at 30 mg/kg [1, 5] [%] | also measured |
| --- | --- | --- | --- | --- |
| 823 | < 5 | O=C(c1nccs1)N1CCN(C2CN(C(=O)c3cccc4c3ccn4-c3ccc(F)cc3)C2)CC1 [Cpd 1320, 1-(4-Fluorophenyl)-4-({3-[4-(1,3-thiazol-2-ylcarbonyl)piperazin-1-yl]azetidin-1-yl}carbonyl)-1H-indole] |  | Kd [3, 7]: 0.015 µM |
| 335 | 11.7 | N#Cc1cccc(-c2ccc(C(=O)N3CC(N4CCN(C(=O)c5nccs5)CC4)C3)cc2)c1 [Cpd 161, 4′-({3-[4-(1,3-Thiazol-2-ylcarbonyl)piperazin-1-yl]azetidin-1-yl}carbonyl)biphenyl-3-carbonitrile] |  | Kd [3, 8]: 0.0112 µM |
| 390 | 30 | Cc1c(C(=O)N2CC(N3CCN(C(=O)c4nccs4)CC3)C2)[nH]c2ccc(Br)cc12 [Cpd 682] |  | Kd ([3]; ThermoFluor, compound concentration measured by qNMR, read-out: MGL mutant ThermoFluor qKd (using qNMR conc.)): 0.014 µM |
| 173 | 13 | C/C(=C\c1ccc(Cl)cc1)c1c(C)c(C(=O)N2CC(N3CCN(C(=O)C(F)(F)F)CC3)C2)nn1-c1ccc(Cl)cc1Cl [Cpd 1012] |  | Kd ([3]; compound concentration measured by qNMR, read-out: MGL mutant ThermoFluor qKd (using qNMR conc.)): 3.34 µM |
| 683 | 23 | O=C(c1ccccc1)N1CCN(C2CN(C(=O)c3ccc(OCc4ccc(Cl)s4)cc3)C2)CC1 [Cpd 972] |  | Kd ([3]; ThermoFluor thermal stability binding assay, read-out: MGL mutant ThermoFluor Kd): 0.08 µM |
| 481 | 15.2 | N#Cc1ccc(-c2ccc(C(=O)N3CC(N4CCN(C(=O)c5nccs5)CC4)C3)cc2)cc1 [Cpd 167, 4′-({3-[4-(1,3-Thiazol-2-ylcarbonyl)piperazin-1-yl]azetidin-1-yl}carbonyl)biphenyl-4-carbonitrile] |  | Kd [3, 8]: 0.0558 µM |
| 531 | 7 | Cc1cc(C(=O)N2CC(N3CCN(C(=O)c4nccs4)CC3)C2)sc1-c1cccc(F)c1 [Cpd 1065] |  | Kd [3, 7]: 0.036 µM |

Further lines, the molecule ahead of its results:

| SMILES | 2-AG accumulation, % of vehicle control at 1 µM [2] [%] | IC50 [4] [nM] | inhibition in vivo at 30 mg/kg [1, 5] [%] | also measured |
| --- | --- | --- | --- | --- |
| O=C(c1cscn1)N1CCN(C2CN(C(=O)c3sc4cc(C(F)(F)F)ccc4c3Cl)C2)CC1 [Cpd 335, 1-(1-{[3-Chloro-6-(trifluoromethyl)-1-benzothiophen-2-yl]carbonyl}azetidin-3-yl)-4-(1,3-thiazol-4-ylcarbonyl)piperazine] |  |  | 108 | inhibition in vivo at 30 mg/kg [1, 6]: 135% |
| O=C(c1ccc2nc(-c3ccccc3)oc2c1)N1CC(N2CCN(C(=O)c3cscn3)CC2)C1 [Cpd 1141, 2-Phenyl-6-({3-[4-(1,3-thiazol-4-ylcarbonyl)piperazin-1-yl]azetidin-1-yl}carbonyl)-1,3-benzoxazole] |  |  | 5.7 |  |
| O=C(c1ccccc1)N1CCN(C2CN(C(=O)c3ccc4c(ccn4-c4ccc(F)cc4)c3)C2)CC1 [Cpd 567, 1-(4-Fluorophenyl)-5-({3-[4-(phenylcarbonyl)piperazin-1-yl]azetidin-1-yl}carbonyl)-1H-indole] |  |  | 63.1 |  |
| O=C(c1ccccc1)N1CCN(C2CN(C(=O)c3ccc4c(ccn4-c4ccc(C(F)(F)F)cc4)c3)C2)CC1 [Cpd 126, 5-({3-[4-(Phenylcarbonyl)piperazin-1-yl]azetidin-1-yl}carbonyl)-1-[4-(trifluoromethyl)phenyl]-1H-indole] |  |  | 51 | inhibition in vivo at 10 mg/kg [1, 5]: 40.8%; inhibition in vivo at 10 mg/kg [1, 6]: 40.4%; inhibition in vivo at 30 mg/kg [1, 6]: 79.5% |
| O=C(c1ccc2nc(-c3ccccc3)oc2c1)N1CC(N2CCN(C(=O)c3nccs3)CC2)C1 [Cpd 318, 2-Phenyl-6-({3-[4-(1,3-thiazol-2-ylcarbonyl)piperazin-1-yl]azetidin-1-yl}carbonyl)-1,3-benzoxazole] |  |  | 44.7 |  |
| O=C(c1ccc2c(ccn2-c2ccc(F)cc2)c1)N1CC(N2CCN(C(=O)c3nccs3)CC2)C1 [Cpd 487, 1-(4-Fluorophenyl)-5-({3-[4-(1,3-thiazol-2-ylcarbonyl)piperazin-1-yl]azetidin-1-yl}carbonyl)-1H-indole] |  |  | 109 | inhibition in vivo at 30 mg/kg [1, 6]: 166% |
